Earlier results as cited in patent publication US20170042890A1, “METHODS OF REDUCING DECLINE IN VITAL CAPACITY” (Cytokinetics, Inc., priority 2014, published 2017).

Key:
[1] = administered concomitantly with tirasemtiv; prior studies; cited from earlier work
[2] = system: ALS; conditions: cited from earlier work

For `Nc1nc2ccc(OC(F)(F)F)cc2s1` [riluzole], the Riluzole exposure [1] is listed as “approximately doubled” and the “Effect on measurable parameters of neuromuscular or pulmonary function” value [2] is listed as “does not improve”.
